These results are taken from PMC3873602, “Atheroprotective Vaccination with MHC-II Restricted Peptides from ApoB-100” (Frontiers in Immunology, 2013).

“Also recorded” adds a separate entry of the source. Where two headings read alike, the source gives them in different places. Ends that are not written are not given here.

Assay [1] addresses T1, H-2 I-A^b (Mus musculus, UniProt P14434+P14483).
T1 sequence (P14434 24-256): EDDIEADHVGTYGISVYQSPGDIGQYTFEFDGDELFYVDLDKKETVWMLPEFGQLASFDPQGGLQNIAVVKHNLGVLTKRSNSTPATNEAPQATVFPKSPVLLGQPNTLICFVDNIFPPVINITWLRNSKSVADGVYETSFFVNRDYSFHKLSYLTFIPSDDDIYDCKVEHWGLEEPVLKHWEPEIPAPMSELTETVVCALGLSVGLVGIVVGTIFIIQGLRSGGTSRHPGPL
T1 sequence (P14483 28-265): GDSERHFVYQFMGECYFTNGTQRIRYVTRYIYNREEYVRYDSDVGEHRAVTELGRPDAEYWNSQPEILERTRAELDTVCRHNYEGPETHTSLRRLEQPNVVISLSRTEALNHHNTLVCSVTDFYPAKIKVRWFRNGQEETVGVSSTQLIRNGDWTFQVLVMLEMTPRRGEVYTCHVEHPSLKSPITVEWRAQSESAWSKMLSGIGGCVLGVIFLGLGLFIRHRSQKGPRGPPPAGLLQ
Briefly: I-A^b binding affinity, competitive inhibition assay with purified MHC and radio-labeled ligand. As for the experimental part:
We measured I-A^b binding affinity using a classical competitive inhibition assay utilizing purified MHC and high affinity radio-labeled I-A^b ligands ([39]). Their ability to displace the radio-labeled I-A^b ligand was measured, and an inhibitory concentration required to displace 50% of the radio-labeled ligand (IC50) was determined.
A peptide can only be recognized by a CD4^+ helper T-cell if it is bound to MHC class II. Because Apoe^−/− mice are on a C57B/6 background, candidate epitopes must be able to bind to the Class II allele, I-A^b. Previously, it has been shown that I-A^b binding motifs can be predicted using algorithms based on the number of anchor residues and hydrophobicity ([36]–[38]). […] The binding affinity is reflected by the amount of peptide, in […], needed to inhibit binding of a standardized radio-labeled peptide by 50% (the IC50) ([39]).

For assay [2], the target named is T1, H-2 I-A^b. To be noted: known T-cell epitope for comparison; cited from earlier work. The source says: Because Apoe^−/− mice are on a C57B/6 background, candidate epitopes must be able to bind to the Class II allele, I-A^b. Previously, it has been shown that I-A^b binding motifs can be predicted using algorithms based on the number of anchor residues and hydrophobicity ([36]–[38]).

In assay [3] the test system is mice. The conditions noted are these: human ApoB-100 B-cell epitope; cited from earlier work. An excerpt: Several studies have reported a protective effect of vaccination with LDL, or ox-LDL, on the development of atherosclerotic plaque ([23]–[25]). However, the mechanism by which these immunizations convey atheroprotection is an ongoing area of research. […] This was initially a promising hypothesis which subsequently led to the search for atheroprotective B-cell (antibody) epitopes. The discovery of such epitopes was first reported by ...

In assay [4] the target is I-Ab (Mus musculus, UniProt P14434+P14483). To be noted: MHC Class II allele of Apoe^−/− and LDL-R^−/− mice; cited from earlier work. The source says:
More recently, researchers have sought to describe the changes in cellular (rather than humoral) immunity that may result from immunization with B-cell epitopes from ApoB-100. Several recent papers have reported an increase in FoxP3^+ expressing TREGS in secondary lymphoid organs [spleens ([32]) and lymph nodes ([33])] after immunization of mice with P210. […] It is not known whether these TREGS are causally related to the atheroprotection that is observed.

Assay [5] has as its system Apoe^−/− mice. The assay can be described thus: Aortic root plaque quantification (Oil Red O) after 1× CFA + 4× IFA immunization. To be noted: female Apoe^−/− mice, 1× CFA + 4× IFA scheme, WD 13 weeks; vs adjuvant-only mice; N = 5. Format: in vivo, mouse. An excerpt:
Eight-week-old female Apoe^−/− mice on C57BL/6 background were purchased from Jackson Laboratories (Bar Harbor, ME, USA). Mice were housed in a specific pathogen free environment and fed chow diet until 10 weeks of age. At 10 weeks of age, mice were started on WD (adjusted calories diet with 42% from fat, Harlan Labs Cat #: TD.88137, CA, USA) and remained on WD until sacrifice at 23 weeks old.
Aortic root sections were examined as follows. Hearts were harvested, placed in Optimal Cutting Temperature medium (OCT, Electron Microscopy Sciences, Hatfield, PA, USA), and frozen at −80°C. Beginning at the first appearance of the tri-leaflet aortic valve, successive 5 μm transverse sections were made for a distance of 100 μm. From these, we analyzed every other section, for a total of 10 sections per root. Sections were then stained with Oil Red O and counter-stained with hematoxylin. Extent of atherosclerosis was then determined as the area involved on each section. To measure en face lesion formation, the whole aorta was carefully cleaned in situ and then the whole aorta pinned out after paraformaldehyde incubation at RT for at least 2 h. Staining for atherosclerotic plaque was performed by incubating samples in Sudan IV. Quantification was performed using ImagePro software (Media Cybernetics, Rockville, MD, USA). […]

Assay [6] deals with Apoe^−/− mice. Briefly: Antibody titers in plasma by chemiluminescent enzyme immunoassay. The class given is in vivo, mouse. To be noted: pooled plasma, chemiluminescent ELISA, 1:250 dilution. As for the experimental part: Antibody titers in plasma were determined by chemiluminescent enzyme immunoassay as previously described ([41]). In brief, white “U” bottom plates (Thermo Lab systems, USA) were coated with various antigens at 5 μg/mL in PBS for overnight incubation. Following blocking with 1% BSA-TBS serum was added in increasing dilutions and incubated at RT for 90 min. Bound antibodies levels were detected using appropriate alkaline phosphatase-conjugated secondary antibodies and a 50% aqueous solution of LumiPhos 530 (Lumigen, USA). Data are expressed as relative light units counted per 100 ms (RLU/100 ms).

The target in assay [7] is H-2 I-A^b (mouse). Briefly: radioligand binding; competitive inhibition assay: peptides displace a high affinity radio-labeled I-A^b ligand from purified MHC; (label) < (MHC) and IC50 ≥ (MHC), so that IC50 values approximate the true Kd.
[8] abbreviates: Table 2, ApoB3501–3516- and ApoB978–993-related overlapping peptides, read-out: H-2 I-Ab (IC50 nM).
The mark [9] stands for this setting: Table 1, displacement of 50% of radio-labeled I-A^b ligand, purified MHC, IC50 approximates Kd.

`CC(C)C[C@H](NC(=O)[C@H](Cc1ccc(O)cc1)NC(=O)[C@@H](NC(=O)[C@H](CC(N)=O)NC(=O)[C@H](C)NC(=O)[C@H](CCC(=O)O)NC(=O)[C@H](CC(N)=O)NC(=O)[C@H](C)NC(=O)[C@@H](NC(=O)[C@H](CO)NC(=O)CNC(=O)[C@@H](N)CO)C(C)C)C(C)C)C(=O)N[C@@H](CC(N)=O)C(=O)N[C@@H](CO)C(=O)N[C@@H](CCCCN)C(=O)NCC(=O)O`: the concentration for half-maximal inhibition (IC50) in assay [1] (setting [8]) amounted to 172 nM.
Take `CC(C)C[C@H](NC(=O)[C@H](C)NC(=O)[C@H](Cc1ccc(O)cc1)NC(=O)[C@H](CC(C)C)NC(=O)[C@@H](NC(=O)[C@H](C)NC(=O)[C@H](CCCNC(=N)N)NC(=O)[C@@H](N)CO)[C@@H](C)O)C(=O)N[C@@H](CO)C(=O)N[C@@H](Cc1c[nH]cn1)C(=O)N[C@@H](C)C(=O)N[C@H](C(=O)N[C@@H](CC(N)=O)C(=O)N[C@@H](CO)C(=O)N[C@@H](Cc1ccc(O)cc1)C(=O)O)C(C)C`: the half-inhibitory concentration (IC50) in assay [1] (setting [9]) came to 1370 nM.
Take `CC(C)C[C@H](NC(=O)[C@H](Cc1ccccc1)NC(=O)[C@H](CO)NC(=O)[C@@H](N)CO)C(=O)N[C@@H](CO)C(=O)N[C@@H](CCC(N)=O)C(=O)N[C@@H](CCC(=O)O)C(=O)N[C@@H](Cc1ccc(O)cc1)C(=O)N[C@@H](CO)C(=O)NCC(=O)N[C@@H](CO)C(=O)N[C@H](C(=O)N[C@@H](C)C(=O)N[C@@H](CC(N)=O)C(=O)N[C@@H](CCC(=O)O)C(=O)N[C@@H](C)C(=O)O)C(C)C`: in assay [1] (setting [8]), the half-inhibitory concentration (IC50) was 6.8 nM.
Consider `C[C@H](NC(=O)CNC(=O)[C@@H](NC(=O)[C@@H](N)[C@@H](C)O)[C@@H](C)O)C(=O)N[C@@H](Cc1ccc(O)cc1)C(=O)N[C@@H](CO)C(=O)N[C@@H](CC(N)=O)C(=O)N[C@@H](C)C(=O)N[C@@H](CO)C(=O)N[C@@H](CO)C(=O)N[C@H](C(=O)N[C@@H](CCC(=O)O)C(=O)N[C@@H](CO)C(=O)N[C@@H](C)C(=O)N[C@@H](CO)C(=O)N[C@@H](Cc1ccc(O)cc1)C(=O)O)[C@@H](C)O`, for which, in assay [1] (setting [8]), the IC50 was 17 nM.
GWYRSPFSRVVHLY [MOG38–51]: in assay [2], the half-maximal inhibitory concentration (IC50) was 354 nM.
Take HLEYVSSELRKSLQV: the IC50 in assay [1] (setting [9]) worked out at 22200 nM.
Consider IALDDAKINFNEKLSQLQTY [Peptide P143], for which the “atheroprotection after vaccination of mice” value (from here on “atheroprotection”) in assay [3] was 40–60%.
Consider KTTKQSFDLSVKAQYKKNKH [Peptide P210], for which the “atheroprotection” value in assay [3] is recorded as 40–60%. Moreover, the “binding to I-Ab” value in assay [4] was “does not bind; also recorded: not to bind to I-Ab”.
For the molecule “MEVGWYRSPFSRVVHLYRNGK [MOG35–55, irrelevant control peptide, myelin oligodendrocyte glycoprotein 35–55]”, the “reduction in aortic sinus (aortic root) plaque development, ORO staining” value in assay [5] is “no significant decrease”. Also, in assay [6], the “antibody titers to ApoB3501–3516 or ApoB978–993 in mice immunized with irrelevant peptide” value was “no antibody titers”. Besides, the “IgG (IgG1, IgG2c) response to the immunizing peptide” value in assay [6] (vs 1× CFA + 4× IFA group) was “predominantly IgG2c response”.
In turn, NNYALFLSPRAQQAS displayed an IC50 in assay [1] (setting [9]) of 1300 nM.
Take NVYLNSKGTRSSVRLQ: the IC50 in assay [1] (setting [8]) was 907 nM.
As to SFTKGNIKSSFLSQEY, in assay [1] (setting [8]), the 50% inhibitory concentration (IC50) was 1170 nM.
Still for that read-out and setting: the same measure for SSTESASYYPLTGDTR: 1260 nM.
As for TRFKHLRKYTYNYEAESSS [Peptide P2], in assay [3], the “atheroprotection” value is 40–60%.
On to YENFAASNKLDVTFS, for which the “H-2 I-A^b (IC50 nM)” value in assay [1] (setting [9]) is “∞”.
In turn, SFTKGNIKSSFLSQEY [ApoB_(3501–3516)-related peptide, position 3489, 16 residues] had a half-maximal inhibitory concentration (IC50) in assay [7] of 1170 nM.
Same read-out and setting: the same measure for SSFLSQEYSGSVANEA [ApoB_(3501–3516)-related peptide, position 3497, 16 residues]: 6.8 nM; for HLEYVSSELRKSLQV [mouse ApoB-100 peptide 4054–4069]: 22200 nM.
In assay [7], TTGAYSNASSTESASY [ApoB_(978–993)-related peptide, position 977, 16 residues] had a concentration for half-maximal inhibition (IC50) of 17 nM.
The same measure, in the same setting: the same measure for SRATLYALSHAVNSY [mouse ApoB-100 peptide 438–453]: 1370 nM; for NVYLNSKGTRSSVRLQ [ApoB_(3501–3516)-related peptide, position 3513, 16 residues]: 907 nM; for SSTESASYYPLTGDTR [ApoB_(978–993)-related peptide, position 985, 16 residues]: 1260 nM.
Same read-out and setting: the same measure for SGSVANEANVYLNSKG [ApoB_(3501–3516)-related peptide, position 3505, 16 residues]: 172 nM; for NNYALFLSPRAQQAS [mouse ApoB-100 peptide 4505–4520]: 1300 nM.
